Measurements reported in patent US11266686B2, “Metal complexes and methods of treatment” (PROCYPRA THERAPEUTICS LLC, priority 2013, dated 2022).

Tests used:
MPTP-lesioned mice [1] = assay: Traction wire test in MPTP-lesioned mouse model of PD; type: in vivo; conditions: for average pull-up time as compared to SSV control: 30 mg/kg API oral for 21 days, gluconic acid NCD p=0.07; for Pull-up Time: 30 mg/kg CuATSM API equivalent, oral gavage for 21 days, average
Description: Traction wire test: Mice are moved to behavior room-testing room 1 hr before test administration. Water and food remain accessible to the mice, and a background “white noise” from a radio is used throughout the hour and test period. Each mouse is pick up the mouse by the tail in one hand, and the mouse held by the tail over the wire until it grasps the wire with the front two paws. The tail is then lowered until the mouse is suspended from the wire by its front two paws. The timing is started as soon as the mouse is suspended independently, with no assistance from the test administrator. The time taken for the mouse to grasp the wire with one of the back feet, such that two front paws and one back paw are grasping the wire, is recorded as the “pull-up time”. The test is repeated for each mouse, three times in a row with a 5 minute inter-trial interval between each suspension on the wire. Mice are returned to their shared cages between trials. If a mouse falls it counts as a trial, and the time until the fall is recorded, and the inter-trial time interval is begun. If the mouse has not completed the task and has not fallen within 60 seconds, then the mouse is taken off the wire and the trial time recorded as 60 seconds. A total of 47 mice were administered MPTP. Of these, a total of 14 mice were then treated with SSV negative control. A total of 14 mice were treated with CuATSM in SSV, of which one mouse was eliminated from the wire pull-up study because of an injured paw. […] Trials in which the mouse fell during the trial were not included in the averages. […] In all instances the mice completed the other two trials successfully so that an average time was calculated for the individual mouse and subsequently for the population.

MPTP-lesioned mice [2] = assay: Neutral Red positive cell count in substantia nigra of MPTP-lesioned mice; type: in vivo, mouse; conditions: 30 mg/kg API oral for 21 days
Method: CuATSM:gluconic acid (1:2) was prepared according to the method of EXAMPLE 7. CuATSM:saccharin (1:2) was prepared according to the methods of EXAMPLE 3. CuATSM was suspended in “Standard Suspension Vehicle” (SSV), consisting of 0.9% (w/v) NaCl, 0.5% (w/v) sodium carboxymethylcellulose, 0.5% (v/v) benzyl alcohol, and 0.4% (v/v) Tween 80 in deionized water. CuATSM:gluconic acid (1:2) and CuATSM:saccharin (1:2) were suspended in sterile water. Samples were prepared by adding one of the compounds to the liquid vehicle (water or SSV) in a vial and then vortexing the mixture for 3 min with a stir bar inside.
MPTP mouse models of PD are described by (Przedborski & Vila, 2003). […] Behavioral testing via the wire test and tissue harvesting followed.
Neuroprotective effects of the CuATSM and NCDs were determined by cell count.
Following the wire pull-up time tests, the mice were anesthetized, blood samples were then obtained for plasma studies, and the mice were then sacrificed by an overdose of anesthetic. Mice were then immediately perfused with cold PBS. The right hemisphere of the brain was placed in 5 ml of chilled 4% wt/vol paraformaldehyde (Sigma-Aldrich) in 0.1 M phosphate buffer overnight at 4° C. and pH 7.4. The brains were then removed and left at 4° C. overnight in 30% wt/vol sucrose (domestic grade) in PBS before being frozen and sectioned on a cryostat. Brains were cut coronally into 30-μm sections in a 1:3 series for the substantia nigra pars compacta (SNpc).
The resulting sections were stained with Neutral Red (Niss1 stain; Sigma-Aldrich). Just prior to immunostaining, the frozen sections are fixed again for 5 min in order to ensure that the brain sections are properly fixed to the glass slide. SNpc nuclei from both normal and lesioned animals were examined. […]
The total number of neurons in the substania nigra was estimated using fractionator sampling (Finkelstein et al., 2000; Stanic et al., 2003; West & Gundersen, 1990). […] The entire SNpc was sampled at every third section and analyzed in a series having a random offset for each brain. […]

| SMILES | average pull-up time as compared to SSV control (MPTP-lesioned mice [1]) | Pull-up Time (MPTP-lesioned mice [1]) | neurons in the substania nigra as compared to SSV control (MPTP-lesioned mice [2]) |
| --- | --- | --- | --- |
| CNC1=NN=C(C)C(C)=NN=C(NC)[S][Cu][S]1 [CuATSM, Copper(II) diacetyl-di(N4-methyl)thiosemicarbazone, reference compound] | significant (both p<0.01 or less) decrease | 4.22 s | significant (all p<0.01 or less) recovery of the neurons |
| CNC1=NN=C(C)C(C)=NN=C(NC)[S][Cu][S]1.O=C(O)C(O)C(O)C(O)C(O)CO.O=C(O)C(O)C(O)C(O)C(O)CO [CuATSM:gluconic acid (1:2)] | decrease in the average pull-up time | 4.62 s | significant (all p<0.01 or less) recovery of the neurons |
| CNC1=NN=C(C)C(C)=NN=C(NC)[S][Cu][S]1.O=C1NS(=O)(=O)c2ccccc21.O=C1NS(=O)(=O)c2ccccc21 [CuATSM:saccharin (1:2)] | significant (both p<0.01 or less) decrease | 3.11 s | significant (all p<0.01 or less) recovery of the neurons |
